In ChEMBL document CHEMBL1129285, “Conformationally constrained analogues of diacylglycerol. 10. Ultrapotent protein kinase C ligands based on a racemic 5-disubstituted tetrahydro-2-furanone template” (J Med Chem, 1996):

Target: Protein kinase C alpha type (Homo sapiens, UniProt P17252)
Experiment: Displacement of [H-20]phorbol12,13-dibutyrate (PDBU) from Protein kinase C alpha

| Ki [nM] | SMILES |
| --- | --- |
| 78 | CCCCCCCCCCCCC/C=C1\CC(CO)(COC(C)=O)OC1=O (configuration not stated) |
| 34 | CCCCCCCCCCCCC/C=C1/CC(CO)(COC(C)=O)OC1=O (configuration not stated) |
